Measured values published in ChEMBL document CHEMBL3526058, “Investigating the enteroenteric recirculation of apixaban, a factor Xa inhibitor: administration of activated charcoal to bile duct-cannulated rats and dogs receiving an intravenous dose and use of drug transporter knockout rats” (Drug Metab Dispos, 2013).

Columns and labels:
[1] = test system: Rattus norvegicus; test: Metabolism and biliary clearance in P-gp-knockout Sprague-Dawley rat at 2 mg/kg, iv relative to total clearance; type: ADME, organism-based, Bile; set-up: dose 2 mg/kg, route intravenous; conditions: in vivo
[2] = test system: Canis familiaris; test: Clearance in bile duct-cannulated beagle dog at 1 mg/kg, iv administered as 5 mins infusion followed by activated charcoal administration 10 to 420 mins post compound dosing; type: ADME, organism-based, Canis lupus familiaris; set-up: dose 1 mg/kg, route intravenous; conditions: in vivo
[3] = test system: Canis familiaris; test: Metabolism and biliary clearance in bile duct-cannulated beagle dog at 1 mg/kg, iv administered as 5 mins infusion followed by activated charcoal administration 10 to 420 mins post compound dosing; type: ADME, organism-based, Canis lupus familiaris; set-up: dose 1 mg/kg, route intravenous; conditions: in vivo
[4] = test system: Rattus norvegicus; test: Renal clearance in wild-type bile duct-cannulated Sprague-Dawley rat at 2 mg/kg, iv relative to total clearance; type: ADME, organism-based, Kidney; set-up: dose 2 mg/kg, route intravenous; conditions: in vivo
[5] = AUC (0 to infinity) in wild-type bile duct-cannulated Sprague-Dawley rat at 2 mg/kg, iv; type: ADME, organism-based; set-up: time infinity, dose 2 mg/kg, route intravenous; conditions: in vivo
[6] = AUC (0 to infinity) in wild-type bile duct-cannulated Sprague-Dawley rat at 2 mg/kg, iv administered 0.125 hr post GF-120918 treatment; type: ADME, organism-based; set-up: time infinity, dose 2 mg/kg, route intravenous; conditions: in vivo, with GF-120918
[7] = AUC (0 to infinity) in BCRP-knockout Sprague-Dawley rat at 2 mg/kg, iv; type: ADME, organism-based; set-up: time infinity, dose 2 mg/kg, route intravenous; conditions: plasma
[8] = Clearance in wild-type bile duct-cannulated Sprague-Dawley rat at 2 mg/kg, iv; type: ADME, organism-based; set-up: dose 2 mg/kg, route intravenous; conditions: in vivo
[9] = Drug recovery in urine of Sprague-Dawley rat at 2 mg/kg, iv measured up to 168 hrs; type: ADME, organism-based; set-up: dose 2 mg/kg, route intravenous; conditions: read-out: Drug recovery
[10] = Drug recovery in bile of bile duct-cannulated beagle dog at 1 mg/kg, iv administered as 5 mins infusion followed by activated charcoal administration 10 to 420 mins post compound measured up to 72 hrs; type: ADME, organism-based, Canis lupus familiaris; set-up: dose 1 mg/kg, route intravenous; conditions: read-out: Drug recovery
[11] = Drug recovery in urine of 30 mins activated charcoal pre-treated bile duct-cannulated Sprague-Dawley rat at 2 mg/kg, iv followed by activated charcoal administration 5 to 180 mins post compound dosing measured up to 48 hrs; type: ADME, organism-based; set-up: dose 2 mg/kg, route intravenous; conditions: read-out: Drug recovery
[12] = Drug recovery in bile of bile duct-cannulated Sprague-Dawley rat at 30 mg/kg, po measured up to 48 hrs; type: ADME, organism-based; set-up: dose 30 mg/kg, route oral; conditions: read-out: Drug recovery
[13] = test system: Rattus norvegicus; test: Intestinal clearance in wild-type 30 mins activated charcoal pre-treated bile duct-cannulated Sprague-Dawley rat at 2 mg/kg, iv followed by activated charcoal administration 5 to 180 mins post compound dosing; type: ADME, organism-based; set-up: dose 2 mg/kg, route intravenous; conditions: in vivo
[14] = test system: Canis familiaris; test: Intestinal clearance in bile duct-cannulated beagle dog at 1 mg/kg, iv administered as 5 mins infusion followed by activated charcoal administration 10 to 420 mins post compound dosing relative to total clearance; type: ADME, organism-based, Canis lupus familiaris; set-up: dose 1 mg/kg, route intravenous; conditions: in vivo
[15] = Renal clearance in bile duct-cannulated beagle dog at 1 mg/kg, iv administered as 5 mins infusion followed by activated charcoal administration 10 to 420 mins post compound dosing; type: ADME, organism-based, Canis lupus familiaris, Kidney; set-up: dose 1 mg/kg, route intravenous; conditions: in vivo
[16] = Clearance in wild-type 30 mins activated charcoal pre-treated bile duct-cannulated Sprague-Dawley rat at 2 mg/kg, iv followed by activated charcoal administration 5 to 180 mins post compound dosing; type: ADME, organism-based; set-up: dose 2 mg/kg, route intravenous; conditions: in vivo
[17] = test system: Rattus norvegicus; test: Intestinal clearance in P-gp-knockout Sprague-Dawley rat at 2 mg/kg, iv; type: ADME, organism-based; set-up: dose 2 mg/kg, route intravenous; conditions: in vivo
[18] = test system: Canis familiaris; test: Intestinal clearance in bile duct-cannulated beagle dog at 1 mg/kg, iv administered as 5 mins infusion; type: ADME, organism-based, Canis lupus familiaris; set-up: dose 1 mg/kg, route intravenous; conditions: in vivo
[19] = Half life in wild-type bile duct-cannulated Sprague-Dawley rat at 2 mg/kg, iv administered 0.125 hr post GF-120918 treatment; type: ADME, organism-based; set-up: dose 2 mg/kg, route intravenous; conditions: in vivo, with GF-120918
[20] = Cmax in BCRP-knockout Sprague-Dawley rat at 2 mg/kg, iv; type: ADME, organism-based; set-up: dose 2 mg/kg, route intravenous; conditions: in vivo
[21] = Drug recovery in urine of Sprague-Dawley rat at 30 mg/kg, po measured up to 168 hrs; type: ADME, organism-based; set-up: dose 30 mg/kg, route oral; conditions: read-out: Drug recovery
[22] = Cmax in wild-type 30 mins activated charcoal pre-treated bile duct-cannulated Sprague-Dawley rat at 2 mg/kg, iv followed by activated charcoal administration 5 to 180 mins post compound dosing; type: ADME, organism-based; set-up: dose 2 mg/kg, route intravenous; conditions: in vivo
[23] = Cmax in P-gp-knockout Sprague-Dawley rat at 2 mg/kg, iv; type: ADME, organism-based; set-up: dose 2 mg/kg, route intravenous; conditions: in vivo
[24] = AUC (0 to infinity) in P-gp-knockout Sprague-Dawley rat at 2 mg/kg, iv; type: ADME, organism-based; set-up: time infinity, dose 2 mg/kg, route intravenous; conditions: plasma
[25] = Renal clearance in bile duct-cannulated beagle dog at 1 mg/kg, iv administered as 5 mins infusion; type: ADME, organism-based, Canis lupus familiaris, Kidney; set-up: dose 1 mg/kg, route intravenous; conditions: in vivo
[26] = Drug recovery in bile of bile duct-cannulated Sprague-Dawley rat at 2 mg/kg, iv measured up to 24 hrs; type: ADME, organism-based; set-up: dose 2 mg/kg, route intravenous; conditions: read-out: Drug recovery
[27] = Drug recovery in urine of bile duct-cannulated beagle dog at 1 mg/kg, iv administered as 5 mins infusion followed by activated charcoal administration 10 to 420 mins post compound measured up to 72 hrs; type: ADME, organism-based, Canis lupus familiaris; set-up: dose 1 mg/kg, route intravenous; conditions: read-out: Drug recovery
[28] = Volume of distribution at steady state in wild-type bile duct-cannulated Sprague-Dawley rat at 2 mg/kg, iv administered 0.125 hr post GF-120918 treatment; type: ADME, organism-based; set-up: dose 2 mg/kg, route intravenous; conditions: in vivo, with GF-120918, read-out: Vdss
[29] = Cmax in bile duct-cannulated beagle dog at 1 mg/kg, iv administered as 5 mins infusion followed by activated charcoal administration 10 to 420 mins post compound dosing; type: ADME, organism-based, Canis lupus familiaris; set-up: dose 1 mg/kg, route intravenous; conditions: in vivo
[30] = Drug recovery in feces of bile duct-cannulated beagle dog at 1 mg/kg, iv administered as 5 mins infusion measured up to 72 hrs; type: ADME, organism-based, Canis lupus familiaris; set-up: dose 1 mg/kg, route intravenous; conditions: read-out: Drug recovery
[31] = test system: Canis familiaris; test: AUC (0 to infinity) in bile duct-cannulated beagle dog at 1 mg/kg, iv administered as 5 mins infusion; type: ADME, organism-based, Canis lupus familiaris; set-up: time infinity, dose 1 mg/kg, route intravenous; conditions: in vivo
[32] = test system: Rattus norvegicus; test: Renal clearance in wild-type 30 mins activated charcoal pre-treated bile duct-cannulated Sprague-Dawley rat at 2 mg/kg, iv followed by activated charcoal administration 5 to 180 mins post compound dosing relative to total clearance; type: ADME, organism-based, Kidney; set-up: dose 2 mg/kg, route intravenous; conditions: in vivo
[33] = Volume of distribution at steady state in BCRP-knockout Sprague-Dawley rat at 2 mg/kg, iv; type: ADME, organism-based; set-up: dose 2 mg/kg, route intravenous; conditions: in vivo, read-out: Vdss
[34] = Renal clearance in P-gp-knockout Sprague-Dawley rat at 2 mg/kg, iv; type: ADME, organism-based, Kidney; set-up: dose 2 mg/kg, route intravenous; conditions: in vivo
[35] = Drug recovery in feces of bile duct-cannulated P-gp-knockout Sprague-Dawley rat at 2 mg/kg, iv measured up to 24 hrs; type: ADME, organism-based; set-up: dose 2 mg/kg, route intravenous; conditions: read-out: Drug recovery
[36] = Renal clearance in BCRP-knockout Sprague-Dawley rat at 2 mg/kg, iv; type: ADME, organism-based, Kidney; set-up: dose 2 mg/kg, route intravenous; conditions: in vivo
[37] = Mean residence time in P-gp-knockout Sprague-Dawley rat at 2 mg/kg, iv; type: ADME, organism-based; set-up: dose 2 mg/kg, route intravenous; conditions: in vivo
[38] = Cmax in wild-type bile duct-cannulated Sprague-Dawley rat at 2 mg/kg, iv; type: ADME, organism-based; set-up: dose 2 mg/kg, route intravenous; conditions: in vivo
[39] = test system: Rattus norvegicus; test: Intestinal clearance in wild-type 30 mins activated charcoal pre-treated bile duct-cannulated Sprague-Dawley rat at 2 mg/kg, iv followed by activated charcoal administration 5 to 180 mins post compound dosing relative to total clearance; type: ADME, organism-based; set-up: dose 2 mg/kg, route intravenous; conditions: in vivo
[40] = Drug recovery in feces of Sprague-Dawley rat at 30 mg/kg, po measured up to 168 hrs; type: ADME, organism-based; set-up: dose 30 mg/kg, route oral; conditions: read-out: Drug recovery
[41] = Renal clearance in wild-type bile duct-cannulated Sprague-Dawley rat at 2 mg/kg, iv administered 0.125 hr post GF-120918 treatment; type: ADME, organism-based, Kidney; set-up: dose 2 mg/kg, route intravenous; conditions: in vivo, with GF-120918
[42] = test system: Rattus norvegicus; test: Metabolism and biliary clearance at 8 hrs in wild-type bile duct-cannulated Sprague-Dawley rat at 2 mg/kg, iv administered 0.125 hr post GF-120918 treatment relative to total clearance; type: ADME, organism-based; set-up: dose 2 mg/kg, route intravenous; conditions: in vivo
[43] = test system: Rattus norvegicus; test: Metabolism and biliary clearance in wild-type bile duct-cannulated Sprague-Dawley rat at 2 mg/kg, iv relative to total clearance; type: ADME, organism-based; set-up: dose 2 mg/kg, route intravenous; conditions: in vivo

CL [1]: 33% | CL [2]: 0.833 mL/min/kg | CL [3]: 0.192 mL/min/kg | CL [4]: 51% | AUC(0-inf) [5]: 1410 ng·h/mL | AUC(0-inf) [6]: 2840 ng·h/mL | AUC(0-inf) [7]: 2340 ng·h/mL | clearance [8]: 23.3 mL/min/kg | dose excreted at 168 h [9]: 51.3% | dose excreted [10]: 13.1% | dose excreted [11]: 40.7% | dose excreted at 48 h [12]: 2.6% | CL [13]: 9.17 mL/min/kg | CL [14]: 62% | CL renal [15]: 0.122 mL/min/kg | clearance [16]: 33.3 mL/min/kg | CL [17]: 3.67 mL/min/kg | CL [18]: 0.287 mL/min/kg | half-life [19]: 2.8 h | Cmax [20]: 2370 ng/mL | dose excreted at 168 h [21]: 13.4% | Cmax [22]: 1640 ng/mL | Cmax [23]: 2160 ng/mL | AUC(0-inf) [24]: 2040 ng·h/mL | CL renal at 5 min [25]: 0.0907 mL/min/kg | dose excreted at 24 h [26]: 10.7% | dose excreted [27]: 8.1% | Vd [28]: 1.6 L/kg | Cmax [29]: 4330 ng/mL | dose excreted [30]: 42.7% | AUC [31]: 9300 ng·h/mL | CL [32]: 39% | Vd [33]: 1.8 L/kg | CL renal [34]: 6.5 mL/min/kg | dose excreted at 24 h [35]: 24.9% | CL renal [36]: 5 mL/min/kg | MRT [37]: 0.8 h | Cmax [38]: 2260 ng/mL | CL [39]: 28% | dose excreted at 168 h [40]: 74% | CL renal at 0.125 h [41]: 5.83 mL/min/kg | CL [42]: 36% | CL [43]: 28%
Structure (SMILES): COc1ccc(-n2nc(C(N)=O)c3c2[14C](=O)N(c2ccc(N4CCCCC4=O)cc2)CC3)cc1
